Data as given in EPA's ToxValDB 9.5.

Tested on: Rattus norvegicus
Settings: oral
[1] = subchronic, gavage, M, Sprague-Dawley, Relative Organ Weight: Liver increase
[2] = subchronic, gavage, M, Sprague-Dawley, Deaths + Clinical Observation: Salivation Abnormal resp. noise Irregular respiration Loose stool DiarrheaSoiled fur, nasal/urogenital region…

`CCCCC(CC)COC(=O)C1CC=CCC1C(=O)OCC(CC)CCCC` (stereo not drawn) [Bis(2-ethylhexyl) 4-cyclohexene-1,2-dicarboxylate] showed an NOEL (subchronic, duration: 42 days, gavage, M, CD(SD), Hematology: WBC decrease, LYMPH decrease, NEUT decrease, Large unstained cell decrease + Absolute Organ Weight: Kidney increase + Relative …) of 100 mg/kg-day.
`CC1CC(CC2CCC(N)C(C)C2)CCC1N` (stereo not drawn) [Bis(4-amino-3-methylcyclohexyl)methane] gave an NOAEL (subchronic, duration: 90 days, gavage, M/F, Wistar, Deaths: None (There were dead animals due to the intubation error) + Clinical Observation: Deteriorated general state Discolored body region…) of 2.5 mg/kg-day.
`[Bi]` [Bismuth] gave an NOEL (short-term, duration: 28 days, gavage, Crj:CD) of 1000 mg/kg-day.
Compound `COc1cc(-c2ccc(N)c(OC)c2)ccc1N.Cl.Cl` [C.I. Disperse Black 6 dihydrochloride] has an NOEL (subchronic, duration: 13 weeks, drinking water, M/F, Fischer 344, Body Weight Changes: decrease + Water Consumption: decrease + Hematology: WBC decrease, Lympho decrease, Hct decrease, RBC decrease + Blood …) of under 170 mg/kg-day.
`Nc1ccc(N)c2c1C(=O)c1c(N)ccc(N)c1C2=O` [C.I. Disperse Blue 1] was tested, and the NOEL (subchronic, duration: 13 weeks, diet, M/F, Fischer 344, Deaths + Body Weight Changes: decrease + Histopathology: Kidneys-Calculi Urinary bladder a"Inflammation Urinary bladder a"Transitional …) was 115 mg/kg-day.
For `[Cl-].[Cs+]` [Caesium chloride], the NOEL (subchronic, duration: 90 days, gavage, M/F, Sprague-Dawley, Deaths + Clinical Observation: Irritability Convulsion, preening Locomotor activity increase + Body Weight Changes: decrease + Food …) was under 10 mg/kg-day.
`COc1ccc2c3c1O[C@H]1[C@@H](O)C=C[C@H]4[C@@H](C2)N(C)CC[C@@]341` [Codeine] gave an NOEL (subchronic, duration: 13 weeks, diet, F, Fischer 344, Deaths + Clinical Observation: Ruffled fur AlopeciaAbnormal posture + Body Weight Changes: decrease + Hematology: RBC decrease, Plt decrease…) of under 25 mg/kg-day and an NOEL (subchronic, duration: 13 weeks, diet, M/F, Fischer 344, Deaths + Clinical Observation: Ruffled fur AlopeciaAbnormal posture + Body Weight Changes: decrease + Hematology: RBC decrease, Plt decrease…) of under 37.4 mg/kg-day.
`O=c1ccc2ccccc2o1` [Coumarin] was tested, and the NOEL (subchronic, duration: 13 weeks, gavage, M/F, Fischer 344, Deaths + Body Weight Changes: decrease + Hematology: RBC increase + Blood Chemistry: Ch E decrease, Cl decrease, TP increase, Alb increase, …) was under 19 mg/kg-day.
Compound `CC(C)(O)C1CCCCC1` [Cyclohexanemethanol, .alpha.,.alpha.-dimethyl-] has an NOEL (short-term, duration: 28 days, gavage, M/F, Clinical Observation: Salivation + Blood Chemistry: GLUC decrease, TP increase, CRN decrease, BIL increase, T-CHO increase + Absolute Organ …) of under 8 mg/kg-day.
With `O=C1c2ccccc2C(=O)C1c1ccc2ccccc2n1` [D & C Yellow 11] the NOEL (subchronic, diet, F, Fischer 344, Body Weight Changes: decrease + Absolute Organ Weight: Liver increase, Lung increase + Relative Organ Weight: Liver increase, Lung increase…) was under 37 mg/kg-day and the NOEL (subchronic, diet, M/F, Fischer 344, Body Weight Changes: decrease + Absolute Organ Weight: Liver increase, Lung increase + Relative Organ Weight: Liver increase, Lung increase…) was under 48 mg/kg-day.
`CC(Cl)(Cl)C(=O)[O-].[Na+]` [Dalapon-sodium] gave an NOEL (subchronic, gavage, M, Sprague-Dawley, Blood Chemistry: TP decrease, BUN increase) of 300 mg/kg-day.
`c1ccc2c(c1)sc1ccccc12` [Dibenzothiophene] showed an NOEL (short-term, duration: 28 days, gavage, M/F, Sprague-Dawley, Clinical Observation: Salivation Soiled perigenital fur + Functional Observational Battery: Locomotor activity decrease + Body Weight …) of 3 mg/kg-day.
`COc1cc(COC(=O)CCCCCCC(C)C)ccc1O` [Dihydrocapsiate] was tested, and the NOEL (subchronic, gavage, M/F, Crj:CD, Blood Chemistry: ALT increase, Ca increase, Alb increase, TP increase + Absolute Organ Weight: Liver increase + Relative Organ Weight: Liver…) was 300 mg/kg-day.
`[CH3][Sn]([CH3])([Cl])[Cl]` [Dimethyltin dichloride] showed an NOAEL (subchronic, duration: 90 days, drinking water, M/F, Sprague-Dawley, Deaths + Clinical Observation: Died or sacrificed with poor condition (All remaining animals were sacrificed by week 6) Dehydration …) of under 3.8 mg/kg-day.
In the case of `CCCCCCC[CH2][Sn]([CH2]CCCCCCC)([S]CC(=O)OCC(CC)CCCC)[S]CC(=O)OCC(CC)CCCC` (stereo not drawn) [Dioctyltinbis(2-ethylhexyl mercaptoacetate)], the NOAEL (subchronic, duration: 90 days, diet, M/F, Wistar, Deaths + Body Weight Changes: Mean body weight decrease + Food Consumption: decrease + Urinalysis: SG decrease, GOT increase + Hematology: …) is reported as 0.96 mg/kg-day.
`COCC(C)OCC(C)O` (stereo not drawn) [Dipropylene glycol monomethyl ether] was tested, and the NOAEL (short-term, duration: 28 days, gavage, M/F, Sprague-Dawley, Clinical Observation: Tentative salivation + Relative Organ Weight: Liver increase + Histopathology: Liver-Centrilobular hypertrophy) was 200 mg/kg-day.
`C=CC(=O)OCC` [Ethyl acrylate] was tested, and the NOAEL (subchronic, duration: 90 days, gavage, M, Fischer 344, Necropsy: Small intestine: Reddening, duodenal mucosa Stomach: Prominent blood vessel, cardiac region) was 55 mg/kg-day.
In the case of `CN1CCN(c2c(F)cc3c(=O)c(C(=O)O)cn(CCF)c3c2F)CC1` [Fleroxacin], the NOEL (chronic, duration: 91 days, gavage, M/F, Wistar, Deaths + Clinical Observation: Piloerection + Body Weight Changes: Body weight decrease, Body weight gain decrease + Food Consumption: …) is reported as 45 mg/kg-day.
Compound `COc1ccc(C[C@@H](C)NC[C@H](O)c2ccc(O)c(NC=O)c2)cc1.COc1ccc(C[C@@H](C)NC[C@H](O)c2ccc(O)c(NC=O)c2)cc1.O=C(O)/C=C/C(=O)O` [Formoterol hemifumarate] has an NOEL (subchronic, duration: 35 days, gavage, F, Sprague-Dawley, Deaths + Clinical Observation: Tachycardia Tachypnea Salivation + Body Weight Changes: Body weight gain decrease + Blood Chemistry: GLUC …) of 0.3 mg/kg-day and an NOEL (subchronic, duration: 35 days, gavage, M, Sprague-Dawley, Deaths + Clinical Observation: Tachycardia Tachypnea Salivation + Body Weight Changes: Body weight gain decrease + Blood Chemistry: GLUC …) of 0.03 mg/kg-day.
In the case of `O=[N+]([O-])c1ccc(NCCO)c(OCCO)c1` [HC Yellow 4], the NOEL (subchronic, duration: 13 weeks, diet, M/F, Fischer 344, Body Weight Changes: decrease + Relative Organ Weight: Right kidney increase, Liver increase, Lungs increase, Thymus increase, Testis …) is reported as under 240 mg/kg-day.
`CC(C)(C)NN.Cl` [Hydrazine, (1,1-dimethylethyl)-, monohydrochloride] gave an NOEL (subchronic, gavage, M, Sprague-Dawley, Hematology: RBC decrease, Hgb decrease, Hct decrease, MCHC decrease, MCV increase, MCH increase, R RET increase, R + Absolute Organ Weight…) of 4 mg/kg-day.
For `C=CC(=O)OCCCCCCCCCCCC` [Lauryl acrylate], the NOAEL [1] was 1000 mg/kg-day and the NOEL [1] was 300 mg/kg-day.
With `CCn1cc(C(=O)O)c(=O)c2cc(F)c(N3CCNC(C)C3)c(F)c21.Cl` (stereo not drawn) [Lomefloxacin hydrochloride] the NOEL (chronic, duration: 91 days, gavage, M/F, Sprague-Dawley, Deaths + Clinical Observation: Prone position(dead animals) Hypothermia(dead animals) Lid closure(dead animals) Clonic convulsion(dead …) was 30 mg/kg-day.
Compound `N#CSCSC#N` [Methylene bis(thiocyanate)] has an NOEL (subchronic, gavage, F, Fischer 344, Deaths + Clinical Observation: Abnormal respiratory sounds Reddish tear Hunched posture Dyspnea + Hematology: Hct decrease, Hgb decrease, …) of 2 mg/kg-day and an NOEL (subchronic, gavage, M, Fischer 344, Deaths + Clinical Observation: Abnormal respiratory sounds Reddish tear Hunched posture Dyspnea + Hematology: Hct decrease, Hgb decrease, …) of 1 mg/kg-day.
With `COC(=O)C(c1ccccc1)C1CCCCN1.Cl` (stereo not drawn) [Methylphenidate hydrochloride] the NOEL (subchronic, duration: 13 weeks, diet, F, Fischer 344, Body Weight Changes: decrease + Food Consumption: decrease + Absolute Organ Weight: Brain increase, Liver increase + Relative Organ Weight: …) was 18 mg/kg-day and the NOEL (subchronic, duration: 13 weeks, diet, M/F, Fischer 344, Body Weight Changes: decrease + Food Consumption: decrease + Absolute Organ Weight: Brain increase, Liver increase + Relative Organ Weight: …) was 24 mg/kg-day.
`O=c1c(O)c(-c2ccc(O)cc2O)oc2cc(O)cc(O)c12` [Morin] showed an NOEL (subchronic, diet, F, Fischer 344, Body Weight Changes: decrease + Hematology: WBC increase + Blood Chemistry: BUN increase , TP decrease, TG decrease , Alb increase , Cho …) of 356 mg/kg-day and an NOEL (subchronic, diet, M/F, Fischer 344, Body Weight Changes: decrease + Hematology: WBC increase + Blood Chemistry: BUN increase , TP decrease, TG decrease , Alb increase , Cho …) of 0.625%.
For `O=C1C=CC(=O)N1c1cccc(N2C(=O)C=CC2=O)c1` [N,N'-1,3-Phenylenedimaleimide], the NOAEL [2] was 15 mg/kg-day and the NOEL [2] was under 15 mg/kg-day.
`CO[Si](CCCNCCN)(OC)OC` [N-[3-(Trimethoxysilyl)propyl]ethane-1,2-diamine] showed an NOAEL (short-term, duration: 28 days, gavage, M, Sprague-Dawley, Clinical Observation: Perioral soiling Increased nasal sounds Labored respiration Soft vocalization) of 500 mg/kg-day.
`O=c1[nH]c2ccccc2n1CCCN1CCN(C(c2ccccc2)c2ccccc2)CC1` [Oxatomide] showed an NOEL (subchronic, duration: 30 days, gavage, M/F, Wistar, Deaths + Clinical Observation: Tremor HypersensitivityPiloerection + Body Weight Changes: Body weight gain decrease + Food Consumption: …) of 40 mg/kg-day.
Work on `Cl.O=C(O)/C=C/c1ccc(Cn2ccnc2)cc1` [Ozagrel hydrochloride] yielded an NOEL (short-term, duration: 28 days, gavage, M/F, Sprague-Dawley, Deaths + Clinical Observation: Locomotor activity decrease, Respiration rate increase + Body Weight Changes: decrease + Food Consumption: …) of 625 mg/kg-day.
For `CC(C)(Sc1cc(C(C)(C)C)c(O)c(C(C)(C)C)c1)Sc1cc(C(C)(C)C)c(O)c(C(C)(C)C)c1` [Probucol], the NOAEL (chronic, duration: 91 days, gavage, Sprague-Dawley) was over 2250 mg/kg-day.
For `O=C([O-])C1=Cc2sc(Cn3ccnc3)cc2CC1.[Na+]` [RS 5186], the NOAEL (subchronic, duration: 90 days, gavage, M/F, CD, Clinical Observation: Salivation Chylous or dark red-brown urine + Absolute Organ Weight: Liver increase + Relative Organ Weight: Liver …) was 30 mg/kg-day.
Work on `C[C@@H](NCCc1ccc(O)cc1)[C@@H](O)c1ccc(O)cc1.Cl` [Ritodrine hydrochloride] yielded an NOEL (subchronic, duration: 35 days, gavage, M/F, Sprague-Dawley, Deaths + Clinical Observation: Locomotor activity decrease, Increased respiration rate Deep respiration Prone, lateral, or supine position …) of 32 mg/kg-day.
`O=[Se](=O)([O-])[O-].[Na+].[Na+]` [Sodium selenate] was tested, and the NOEL (subchronic, drinking water, F, Fischer 344, Deaths + Body Weight Changes: decrease + Hematology: Hct increase, Hgb increase, RBC increase + Blood Chemistry: BUN increase ALT increase, …) was 0.31 mg/kg-day and the NOEL (subchronic, drinking water, M/F, Fischer 344, Deaths + Body Weight Changes: decrease + Hematology: Hct increase, Hgb increase, RBC increase + Blood Chemistry: BUN increase ALT increase, …) was 0.57 mg/kg-day.
With `O=C1CCC(=O)O1` [Succinic anhydride] the NOEL (subchronic, duration: 13 weeks, gavage, M/F, Fischer 344, Deaths + Clinical Observation: Lethargy Distended abdomens + Body Weight Changes: decrease + Absolute Organ Weight: Liver increase + …) was 50 mg/kg-day.
With `Nc1ccc(S(N)(=O)=O)cc1` [Sulfanilamide] the NOEL (short-term, duration: 28 days, gavage, M/F, Sprague-Dawley, Clinical Observation: Salivation + Functional Observational Battery: Auditory response decrease, Disappearance, aerial righting reflex …) was 50 mg/kg-day.
`O=C(O)c1cc(N=Nc2ccc(S(=O)(=O)Nc3ccccn3)cc2)ccc1O` [Sulfasalazine] was tested, and the NOEL (subchronic, duration: 13 weeks, gavage, M/F, Fischer 344, Body Weight Changes: decrease + Blood Chemistry: TSH increase T3 decrease T4 decrease + Absolute Organ Weight: Right kidney increase + …) was under 84 mg/kg-day.
`CCCCCc1cc(O)c2c(c1)OC(C)(C)[C@@H]1CCC(C)=C[C@@H]21` [Tetrahydrocannabinol] was tested, and the NOEL (subchronic, duration: 13 weeks, gavage, M/F, Fischer 344, Deaths: Administration groups for 13 weeks(1/10 )(2/10 )(6/10 /10 ) + Clinical Observation: Convulsion Aggressive behavior: Dose is unknown …) was under 5 mg/kg-day.
With `NNC(N)=S` [Thiosemicarbazide] the NOEL (subchronic, gavage, M, Sprague-Dawley, Functional Observational Battery: Tonic convulsion Hypersensitive reaction in touch response and tail pinch response + Body Weight Changes: …) was 0.4 mg/kg-day.
